Values of other authors, collected in patent US20250339420A1, “ANILINE-DERIVATIVE-CONTAINING EXTERNAL PREPARATION FOR SKIN” (KINOPHARMA, INC., priority 2022, published 2025).

Columns and labels:
[1] = test system: E6 and E7 genes of human papillomavirus (HPV)

## Fc1ccc(N2CCCCC2)c(NC(=S)c2ccncc2)c1 [Compound I-a, N-[5-fluoro-2-(1-piperidinyl)phenyl]-4-pyridinethioamide]
papillomavirus
  antiviral activity against papillomavirus: exhibits antiviral activity
[1]
  expression of E6 and E7 genes of human papillomavirus (HPV): suppresses expression
p53 gene
  effect on p53 gene: stabilizes p53 gene
